What was measured:
ΔF508-CFTR [1] = target: T1, ΔF508-CFTR (Homo sapiens, UniProt P13569, DEL508-508); test: CFTR cell surface levels using HRP-tagged ΔF508-CFTR expressing CFBE cells, intrinsic corrector capacity; assay type: cell-based; set-up: % Activation: concentration or dose not given beside the values; conditions: HRP-tagged ΔF508-CFTR expressing CFBE41o- cells, compound alone (intrinsic corrector capacity), 20 hours at 33° C.; for EC50: read-out: EC50
T1 construct: host or cells: CFBE41o-, doxycycline-inducible
T1 sequence (P13569 with tags, fused parts or gaps DEL508-508): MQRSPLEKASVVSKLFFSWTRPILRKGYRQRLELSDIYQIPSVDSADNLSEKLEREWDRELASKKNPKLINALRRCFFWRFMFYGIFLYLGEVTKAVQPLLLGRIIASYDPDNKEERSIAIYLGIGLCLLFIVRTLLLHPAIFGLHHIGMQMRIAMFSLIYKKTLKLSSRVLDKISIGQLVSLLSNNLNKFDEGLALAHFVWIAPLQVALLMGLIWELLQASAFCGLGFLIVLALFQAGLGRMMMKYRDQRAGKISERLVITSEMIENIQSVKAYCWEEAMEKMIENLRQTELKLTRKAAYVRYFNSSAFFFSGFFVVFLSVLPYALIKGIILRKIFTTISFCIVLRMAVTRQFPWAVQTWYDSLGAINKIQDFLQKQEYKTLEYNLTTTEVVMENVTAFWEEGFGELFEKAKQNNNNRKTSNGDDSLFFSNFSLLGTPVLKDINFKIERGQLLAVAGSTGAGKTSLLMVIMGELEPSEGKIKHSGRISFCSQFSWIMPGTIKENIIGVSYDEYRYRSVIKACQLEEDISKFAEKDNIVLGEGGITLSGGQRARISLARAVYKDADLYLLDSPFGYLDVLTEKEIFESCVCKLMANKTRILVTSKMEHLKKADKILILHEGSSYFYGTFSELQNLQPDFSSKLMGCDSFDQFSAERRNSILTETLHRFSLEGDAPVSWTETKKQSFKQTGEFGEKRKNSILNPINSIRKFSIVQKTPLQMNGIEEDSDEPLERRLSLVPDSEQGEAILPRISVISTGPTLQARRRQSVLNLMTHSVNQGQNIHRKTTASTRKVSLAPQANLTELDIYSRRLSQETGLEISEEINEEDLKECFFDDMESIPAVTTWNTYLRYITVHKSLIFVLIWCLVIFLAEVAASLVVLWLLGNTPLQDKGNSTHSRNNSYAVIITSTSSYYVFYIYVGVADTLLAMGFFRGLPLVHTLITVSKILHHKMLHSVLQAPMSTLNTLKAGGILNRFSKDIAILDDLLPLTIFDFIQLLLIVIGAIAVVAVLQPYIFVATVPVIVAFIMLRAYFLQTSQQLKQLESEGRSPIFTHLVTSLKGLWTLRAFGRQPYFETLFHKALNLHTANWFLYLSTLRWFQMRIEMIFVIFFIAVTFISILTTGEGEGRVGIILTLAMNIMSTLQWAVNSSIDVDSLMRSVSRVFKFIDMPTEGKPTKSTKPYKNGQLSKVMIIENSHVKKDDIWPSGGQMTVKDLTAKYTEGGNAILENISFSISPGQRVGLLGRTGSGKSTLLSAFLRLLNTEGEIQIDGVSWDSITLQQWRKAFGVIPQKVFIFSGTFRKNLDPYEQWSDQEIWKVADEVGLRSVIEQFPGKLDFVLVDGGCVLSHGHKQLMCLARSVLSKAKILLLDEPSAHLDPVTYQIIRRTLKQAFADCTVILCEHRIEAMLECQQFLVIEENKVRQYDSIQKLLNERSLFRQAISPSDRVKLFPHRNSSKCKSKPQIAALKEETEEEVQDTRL
Outline: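 Read-out: chemiluminescent HRP activity of ECL4-HRP-tagged ΔF508-CFTR at the cell surface, 15 min substrate in dark. Normalized as 100×(sample−DMSO)/(positive control−DMSO).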

ΔF508-CFTR [2] = target: T1, ΔF508-CFTR; test: CFTR cell surface levels using HRP-tagged ΔF508-CFTR expressing CFBE cells, in the presence of a co-corrector; assay type: cell-based; conditions: HRP-tagged ΔF508-CFTR CFBE cells, in the presence of 3 μM co-corrector; for EC50: read-out: EC50
Outline: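 Chemiluminescent read-out of surface HRP (15 min, dark) after PBS washes. Activity is normalized as 100×(sample−DMSO)/(3 μM co-corrector alone−DMSO).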

Row | Compound | % Activation (ΔF508-CFTR [1]) | EC50 (ΔF508-CFTR [1]) | % Activation (ΔF508-CFTR [2]) | EC50 (ΔF508-CFTR [2])
1 | O=C(NS(=O)(=O)CCO)c1cc(N2CCC(CCN3CCOCC3)CC2)c2c(C3CCC3)nn(-c3ccc(F)cc3)c2n1 [Compound 491, 3-cyclobutyl-1-(4-fluorophenyl)-N-(2-hydroxyethanesulfonyl)-4-{4-[2-(morpholin-4-yl)ethyl]piperidin-1-yl}-1H-pyrazolo[3,4-b]pyridine-6-carboxamide] | 204.5% | 248 nM | 490.9% | 488 nM
2 | COC(=O)N1CCN(C2CCN(c3cc(C(=O)NS(=O)(=O)N(C)C)nc4c3c(C3CCC3)nn4-c3ccc(F)cc3)CC2)CC1 [Compound 492, methyl 4-(1-{3-cyclobutyl-6-[(dimethylsulfamoyl)carbamoyl]-1-(4-fluorophenyl)-1H-pyrazolo[3,4-b]pyridin-4-yl}piperidin-4-yl)piperazine-1-carboxylate] | 311% | 79.9 nM | 483.4% | 43.9 nM
3 | CCS(=O)(=O)NC(=O)c1cc(N2CCC(CN3CCOCC3)CC2)c2c(C3CCC3)nn(-c3ccc(F)cc3)c2n1 [Compound 494, 3-cyclobutyl-N-(ethanesulfonyl)-1-(4-fluorophenyl)-4-{4-[(morpholin-4-yl)methyl]piperidin-1-yl}-1H-pyrazolo[3,4-b]pyridine-6-carboxamide] | 315.4% | 110 nM | 551.8% | 37.1 nM
4 | CCOC(=O)N1CCC(c2cc(C(=O)NS(C)(=O)=O)nc3c2c(C(C)C)nn3-c2ccc(F)cc2)CC1 [Compound 496, ethyl 4-[1-(4-fluorophenyl)-6-[(methanesulfonyl)carbamoyl]-3-(propan-2-yl)-1H-pyrazolo[3,4-b]pyridin-4-yl]piperidine-1-carboxylate] | 199.9% | 282 nM | 374.65% | 243 nM
5 | CCOC(=O)N1CCC(c2cc(C(=O)NS(=O)(=O)N(C)C)nc3c2c(C(C)C)nn3-c2ccc(F)cc2)CC1 [Compound 497, ethyl 4-{6-[(dimethylsulfamoyl)carbamoyl]-1-(4-fluorophenyl)-3-(propan-2-yl)-1H-pyrazolo[3,4-b]pyridin-4-yl}piperidine-1-carboxylate] | 195.7% | 410 nM | 378.25% | 288 nM
6 | Cc1cccc(-n2nc(C3CCC3)c3c(N4CCC(N5CCOCC5)CC4)cc(C(=O)NS(=O)(=O)N(C)C)nc32)c1 [Compound 498, 3-cyclobutyl-N-(dimethylsulfamoyl)-1-(3-methylphenyl)-4-[4-(morpholin-4-yl)piperidin-1-yl]-1H-pyrazolo[3,4-b]pyridine-6-carboxamide] | 288.1% | 144 nM | 456.3% | 95.1 nM
7 | COc1cccc(-n2nc(C3CCC3)c3c(N4CCC(N5CCOCC5)CC4)cc(C(=O)NS(=O)(=O)N(C)C)nc32)c1 [Compound 499, 3-cyclobutyl-N-(dimethylsulfamoyl)-1-(3-methoxyphenyl)-4-[4-(morpholin-4-yl)piperidin-1-yl]-1H-pyrazolo[3,4-b]pyridine-6-carboxamide] | 287.5% | 186 nM | 439.6% | 71.2 nM
8 | CN(C)S(=O)(=O)NC(=O)c1cc(N2CCC(N3CCOCC3)CC2)c2c(C3CCC3)nn(-c3ccc(C(F)(F)F)cc3)c2n1 [Compound 500, 3-cyclobutyl-N-(dimethylsulfamoyl)-4-[4-(morpholin-4-yl)piperidin-1-yl]-1-[4-(trifluoromethyl)phenyl]-1H-pyrazolo[3,4-b]pyridine-6-carboxamide] | 137.5% | 173 nM | 330.05% | 84.2 nM
9 | CCOCC1(F)CCN(c2cc(C(=O)NS(C)(=O)=O)nc3c2c(C2CCC2)nn3-c2ccccc2)CC1 [Compound 501, 3-cyclobutyl-4-[4-(ethoxymethyl)-4-fluoropiperidin-1-yl]-N-(methanesulfonyl)-1-phenyl-1H-pyrazolo[3,4-b]pyridine-6-carboxamide] | 188.7% | 211 nM | 403.55% | 124 nM
10 | COCCOCC1(F)CCN(c2cc(C(=O)NS(C)(=O)=O)nc3c2c(C2CCC2)nn3-c2ccccc2)CC1 [Compound 502, 3-cyclobutyl-4-{4-fluoro-4-[(2-methoxyethoxy)methyl]piperidin-1-yl}-N-(methanesulfonyl)-1-phenyl-1H-pyrazolo[3,4-b]pyridine-6-carboxamide] | 214.2% | 345 nM | 383.8% | 177 nM
11 | COCCOCC1(F)CCCN(c2cc(C(=O)NS(C)(=O)=O)nc3c2c(C2CCC2)nn3-c2ccccc2)C1 (centres unmarked) [Compound 503, 3-cyclobutyl-4-{3-fluoro-3-[(2-methoxyethoxy)methyl]piperidin-1-yl}-N-(methanesulfonyl)-1-phenyl-1H-pyrazolo[3,4-b]pyridine-6-carboxamide] | 203.4% | 419 nM | 433.2% | 405 nM
12 | COCC1(F)CCN(c2cc(C(=O)NS(C)(=O)=O)nc3c2c(C2CCC2)nn3-c2ccccc2)CC1 [Compound 504, 3-cyclobutyl-4-[4-fluoro-4-(methoxymethyl)piperidin-1-yl]-N-(methanesulfonyl)-1-phenyl-1H-pyrazolo[3,4-b]pyridine-6-carboxamide] | 206.4% | 301 nM | 404.8% | 210 nM
13 | N#CC1CCN(S(=O)(=O)NC(=O)c2cc(N3CCC(N4CCOCC4)CC3)c3c(C4CCC4)nn(-c4ccc(F)cc4)c3n2)CC1 [Compound 505, N-(4-cyanopiperidine-1-sulfonyl)-3-cyclobutyl-1-(4-fluorophenyl)-4-[4-(morpholin-4-yl)piperidin-1-yl]-1H-pyrazolo[3,4-b]pyridine-6-carboxamide] | 187.5% | 92.6 nM | 389% | 54.1 nM
14 | O=C(NS(=O)(=O)C1COC1)c1cc(N2CCC(N3CCOCC3)CC2)c2c(C3CCC3)nn(-c3ccc(F)cc3)c2n1 [Compound 506, 3-cyclobutyl-1-(4-fluorophenyl)-4-[4-(morpholin-4-yl)piperidin-1-yl]-N-(oxetane-3-sulfonyl)-1H-pyrazolo[3,4-b]pyridine-6-carboxamide] | 144.1% | 3330 nM | 308.95% | 941 nM
15 | O=C(NS(=O)(=O)C1CC1)c1cc(N2CCC(N3CCOCC3)CC2)c2c(C3CCC3)nn(-c3ccc(F)cc3)c2n1 [Compound 507, 3-cyclobutyl-N-(cyclopropanesulfonyl)-1-(4-fluorophenyl)-4-[4-(morpholin-4-yl)piperidin-1-yl]-1H-pyrazolo[3,4-b]pyridine-6-carboxamide] | 309.4% | 137 nM | 580.4% | 95.4 nM
16 | CC1(S(=O)(=O)NC(=O)c2cc(N3CCC(N4CCOCC4)CC3)c3c(C4CCC4)nn(-c4ccc(F)cc4)c3n2)CC1 [Compound 508, 3-cyclobutyl-1-(4-fluorophenyl)-N-(1-methylcyclopropane-1-sulfonyl)-4-[4-(morpholin-4-yl)piperidin-1-yl]-1H-pyrazolo[3,4-b]pyridine-6-carboxamide] | 217.5% | 182 nM | 448.8% | 90.3 nM
17 | Cc1cccc(-n2nc(C3CCC3)c3c(N4CCC(N5CCOCC5)CC4)cc(C(=O)NS(C)(=O)=O)nc32)c1 [Compound 509, 3-cyclobutyl-N-(methanesulfonyl)-1-(3-methylphenyl)-4-[4-(morpholin-4-yl)piperidin-1-yl]-1H-pyrazolo[3,4-b]pyridine-6-carboxamide] | 333.2% | 327 nM | 527.9% | 118 nM
18 | CS(=O)(=O)NC(=O)c1cc(N2CCC(N3CCOCC3)CC2)c2c(C3CCC3)nn(-c3ccc(C(F)(F)F)cc3)c2n1 [Compound 510, 3-cyclobutyl-N-(methanesulfonyl)-4-[4-(morpholin-4-yl)piperidin-1-yl]-1-[4-(trifluoromethyl)phenyl]-1H-pyrazolo[3,4-b]pyridine-6-carboxamide] | 234.9% | 298 nM | 428.8% | 171 nM
19 | Cc1cc(-n2nc(C3CCC3)c3c(N4CCC(N5CCOCC5)CC4)cc(C(=O)NS(=O)(=O)N(C)C)nc32)ccc1F [Compound 511, 3-cyclobutyl-N-(dimethylsulfamoyl)-1-(4-fluoro-3-methylphenyl)-4-[4-(morpholin-4-yl)piperidin-1-yl]-1H-pyrazolo[3,4-b]pyridine-6-carboxamide] | 248.55% | 88.3 nM | 432.95% | 78.9 nM
20 | CN(C)S(=O)(=O)NC(=O)c1cc(N2CCC(N3CCOCC3)CC2)c2c(C3CCC3)nn(-c3cccc(F)c3)c2n1 [Compound 512, 3-cyclobutyl-N-(dimethylsulfamoyl)-1-(3-fluorophenyl)-4-[4-(morpholin-4-yl)piperidin-1-yl]-1H-pyrazolo[3,4-b]pyridine-6-carboxamide] | 222.27% | 121 nM | 415.25% | 65.3 nM
